Test results taken from US8877717B2, “Anti-diabetic extract of rooibos” (Zadec ApS, priority 2007, dated 2014).

Columns and labels:
diabetic rats = assay: Flavonoids administered to diabetic rats (blood sugar); type: in vivo
[1] = Bioassay of purified fractions for anti-diabetic activity
Text: The partially purified active extract may be dissolved in methanol, and may be further fractionated by column chromatography, employing silica gel as an adsorption medium and a chloroform/30% methanol mixture as an eluent. A plurality of different fractions may be obtained, and each may be evaluated, by suitable bioassaying procedures, to determine the anti-diabetic activity thereof.
A fraction having anti-diabetic activity may preferably be further fractionated such as by column chromatography using silica gel as an adsorption medium and a 9:1 chloroform:methanol solvent, and the resultant sub-fractions bioassayed for their anti-diabetic activity. A sub-fraction displaying anti-diabetic activity may, if desired, be further fractionated and purified, conveniently using a column chromatographic procedure with silica gel as the adsorption medium and a 9:1 ethylacetate:hexane solvent. The resultant purified fractions may again be evaluated by suitable bioassay procedures for their anti-diabetic activity.

Question: Which “lowering the blood sugar and alleviating diabetic symptoms” value (diabetic rats; T1D and T2D rats) does the source give for `O=C(CCc1ccc(O)c(O)c1)c1c(O)cc(O)c([C@@H]2O[C@H](CO)[C@@H](O)[C@H](O)[C@H]2O)c1O` [aspalathin, 3′-C-fl-D-glucopyranosyl-2′,3,4,4′,6′-pentahydroxydihydrochalcone] here?
Answer: effective

Question: And the “effect in diabetic rats compared with the extract” value (diabetic rats; flavonoids extracted and fractionated from Aspalathus)?
Answer: results similar to those produced by the extract

Question: And the “anti-diabetic activity of purified fraction” value [1]?
Answer: good anti-diabetic activity
